In BindingDB's records for doi:10.1016/j.bmcl.2007.02.049 (Gnf, 2007):

Molecular target: Cathepsin S (Homo sapiens, UniProt P25774)
Assay: Enzyme Inhibition Assay
Conditions: pH 5.5; 37 °C
Protocol: The recombinant human cathepsin enzyme was preincubated with inhibitor for 20 minutes prior to addition of substrate. The substrate hydrolysis was monitored by the increase in fluorescence at an excitation wavelength of 380nm and an emission wavelength of 450 nm on a Gemini EM fluorometer. The reaction progress curve was fitted to the Morrison equation using PlateKi (BioKin) and the apparent inhibition constant was converted to the inhibition constant (Ki) for competitive inhibitors.

Sequence of Cathepsin S (P25774 whole entry): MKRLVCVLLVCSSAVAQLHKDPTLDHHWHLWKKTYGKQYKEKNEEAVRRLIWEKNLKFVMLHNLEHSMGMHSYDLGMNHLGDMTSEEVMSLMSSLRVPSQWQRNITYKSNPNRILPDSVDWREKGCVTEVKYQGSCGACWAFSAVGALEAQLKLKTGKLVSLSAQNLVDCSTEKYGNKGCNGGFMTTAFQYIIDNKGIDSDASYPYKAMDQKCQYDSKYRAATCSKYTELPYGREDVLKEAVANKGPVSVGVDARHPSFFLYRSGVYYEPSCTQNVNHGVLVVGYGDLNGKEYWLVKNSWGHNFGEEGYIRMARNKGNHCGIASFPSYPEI

Ki: 0.02 µM
SMILES: O=C(N[C@@H](CCc1ccccc1)CNc1ccc(OC(F)(F)F)cc1)[C@H](CCC1CCCC1)CC(=O)N1CCOCC1 [(2R)-2-(2-cyclopentylethyl)-4-(morpholin-4-yl)-4-oxo-N-[(2S)-4-phenyl-1-{[4-(trifluoromethoxy)phenyl]amino}butan-2-yl]butanamide]
